# From paper PMC7529758, “Over-activation of a nonessential bacterial protease DegP as an antibiotic strategy” (Communications Biology, 2020)
# *1 amine or outer side, *2 acyl side, *3 side chain or, on linkers, in order; H or OH if unused. Where a SMILES comes first, the peptide text is derived from it. Bridges are numbered along the chain shown (N, C = ends). Roman numbers before positions name the chains, in order. Where no end group is shown, it is not given here. The star is where a group is joined. TBMB = c1c(C[*:1])cc(C[*:3])cc1C[*:2]; mXylylene = c1cc(C[*:1])cc(C[*:2])c1; Bn = c1ccc(C*)cc1
# B1: DegP^S210A (enzyme, E. coli, UniProt P0C0V0 27-474, looked up)
# chain: AETSSATTAQQMPSLAPMLEKVMPSVVSINVEGSTTVNTPRMPRNFQQFFGDDSPFCQEGSPFQSSPFCQGGQGGNGGGQQQKFMALGSGVIIDADKGYVVTNNHVVDNATVIKVQLSDGRKFDAKMVGKDPRSDIALIQIQNPKNLTAIKMADSDALRVGDYTVAIGNPFGLGETVTSGIVSALGRSGLNAENYENFIQTDAAINRGNAGGALVNLNGELIGINTAILAPDGGNIGIGFAIPSNMVKNLTSQMVEYGQVKRGELGIMGTELNSELAKAMKVDAQRGAFVSQVLPNSSAAKAGIKAGDVITSLNGKPISSFAALRAQVGTMPVGSKLTLGLLRDGKQVNVNLELQQSSQNQVDSSSIFNGIEGAEMSNKGKDQGVVVNNVKTGTPAAQIGLKKGDVIIGANQQAVKNIAELRKVLDSKPSVLALNIQRGDSTIYLLMQ
# notes: periplasmic protease DegP (HtrA family) of E. coli, active-site mutant S210A; In the crystals it resembles the dodecameric cage of 3OTP (two trimers in the asymmetric unit); also called DegP active-site mutant
# What was measured:
# DegP^S210A [1] = biological target: T1, DegP^S210A (Escherichia coli, UniProt P0C0V0, C83S/C95S/N322C/S236A); assay: FRET assay of DegP cage assembly; type: biochemical
# T1 construct: pET22b-degP(full length; C57S/C69S/N296C/S210A)_6His; 6His (C); made in house; host or cells: E. coli (inferred from the pET plasmid)
# Method: Fluorescence resonance energy transfer (FRET) assay was performed as previously described[14],[22]. Equimolar amounts of fluorescence donor- and acceptor-labeled DegP^S210A (total 0.1, 1 or 3 μM) was mixed in a buffer containing 50 mM sodium phosphate (pH 8) and 100 mM NaCl. Two-fold serial dilutions of activators were added to the DegP mixtures. Alexa Fluor 555 C2-maleinide and 647 C2-maleinide (life technologies) were used as fluorescence dyes. Cage assembly of DegP was monitored by increased FRET ratio using the micro-plate reader (excitation 520 nm, emission 570 or 670 nm, Infinite M200pro, Tecan). Assays were performed in triplicates.
# DegP^S210A [2] = biological target: T2, DegP^S210A (Escherichia coli, UniProt P0C0V0, S236A); assay: Isothermal titration calorimetry; type: binding; conditions: ITC; for Kd: Kd (M); for binding stoichiometry N: 298 K, single binding site model, DMB_CYYKI 0–2 molar ratio
# T2 construct: pET22b-degP(full length; S210A)_6His; 6His (C); made in house
# Method: ITC experiments were performed using Affinity ITC instruments (TA Instruments, New Castle, DE, USA) at 298 K. DegP^S210A mutant (18.10 μM for 0–2 molar ratio and 109.33 μM for 0–0.4 molar ratio), which were prepared in a buffer containing 5 mM phosphate (pH 8.0) were degassed at 295 K prior to measurements. Using a micro-syringe, 2.5 μL of DMB_CYYKI (300 μM) was added at intervals of 200 s to the DegP solution in the cell with gentle stirring. As for other ligands, 2.5 μL of MMB_CYYKI (453 μM), TMB_CYYKI (218.46 μM) or 18–58 substrate peptide (80 μM) was added at intervals of 200 s to the DegP solution (27.33 μM, 37.45 μM, and 20 μM, respectively). Data were fitted to the single binding site model. In experiments with 0–2 and 0–2.6 molar ratio of DMB_CYYKI and MMB_CYYKI, respectively, the data with 0–0.3 molar ratio were excluded for the fitting.
# E. coli imp4213 = assay: microbe, parasite or virus in culture; type: cell-based, Escherichia coli
# Method: The susceptibility of E. coli to activators was analyzed by determining the MICs. Two-fold serial dilutions of activators in LB broth were added to bacteria (OD600 = 0.1) in 96-well plates. Plates were incubated with shaking at 30 or 42 °C. After 12 h of incubation, the MIC was defined as the lowest concentration of the activator to inhibit the growth of bacteria by using a micro-plate reader (Absorbance 600 nm, Infinite M200pro, Tecan). The assay was performed in triplicates.
# E.coli imp4213 strain = type: cell-based, Escherichia coli; conditions: 20 µg/ml alone; 12 h
# Method: Time-kill experiment was performed by counting the viable bacteria at each time point. The E.coli imp4213 strain was cultured with streptomycin overnight and diluted 1:100 in fresh LB broth. When the OD600 value became 0.01, the activator was added at 2x MIC. The sample was incubated with shaking (180 rpm) at 30 °C or 42 °C, and aliquots were taken after 0, 1, 2, 4, 6, 8, 10, or 12 h. These aliquots were serially diluted (ten-fold) and plated on LB agar plates for colony counts. Experiments were performed in triplicates. The kill curves were plotted with the CFU/mL against time.
# Experiments with cells in the stationary phase, however, were performed without dilution of the overnight culture.
# DegP^WT (E. coli) = biological target: T3, DegP^WT (E. coli) (UniProt P0C0V0)
# T3 sequence: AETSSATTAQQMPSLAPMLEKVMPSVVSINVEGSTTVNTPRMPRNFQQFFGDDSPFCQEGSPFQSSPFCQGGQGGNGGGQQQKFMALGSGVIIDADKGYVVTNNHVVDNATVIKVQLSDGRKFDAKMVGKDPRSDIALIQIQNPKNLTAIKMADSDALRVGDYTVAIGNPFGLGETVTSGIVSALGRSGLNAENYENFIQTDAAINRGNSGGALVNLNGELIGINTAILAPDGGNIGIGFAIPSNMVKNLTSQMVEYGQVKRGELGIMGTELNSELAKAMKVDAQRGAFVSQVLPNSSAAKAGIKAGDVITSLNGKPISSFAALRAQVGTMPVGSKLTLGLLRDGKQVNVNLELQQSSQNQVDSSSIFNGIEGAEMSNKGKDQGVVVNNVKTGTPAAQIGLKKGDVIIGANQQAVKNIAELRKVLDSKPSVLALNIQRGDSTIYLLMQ
# [3] = biological target: the molecule itself; assay: crystal structure; DegP^S210A (198 µM) incubated with TMB_CYYKI (297 µM) in 5 mM phosphate pH 8.0 for 1 h at 295 K; hanging drop, PEG3350 10%, tacsimate 0.1 M pH 3.4; molecular replacement with 3OTP
# DegP^S210A [4] = biological target: T4, DegP^S210A (E. coli, UniProt P0C0V0 27-474, S210A); assay: ITC
# T4 sequence: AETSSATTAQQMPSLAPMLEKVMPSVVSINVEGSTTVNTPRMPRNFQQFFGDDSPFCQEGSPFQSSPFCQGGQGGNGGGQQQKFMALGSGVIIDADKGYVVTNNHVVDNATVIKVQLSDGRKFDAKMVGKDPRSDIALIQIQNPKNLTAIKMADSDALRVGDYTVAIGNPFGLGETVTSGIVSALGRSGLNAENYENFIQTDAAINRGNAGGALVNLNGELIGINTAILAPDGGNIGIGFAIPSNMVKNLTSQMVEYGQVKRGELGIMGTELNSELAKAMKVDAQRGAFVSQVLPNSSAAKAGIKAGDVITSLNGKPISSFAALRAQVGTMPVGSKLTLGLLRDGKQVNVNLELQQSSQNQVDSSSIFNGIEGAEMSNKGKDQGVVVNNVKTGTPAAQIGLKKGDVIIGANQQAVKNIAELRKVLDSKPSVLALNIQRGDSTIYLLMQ
# DegP^S210A [5] = biological target: B1; assay: ITC; 298 K, 5 mM phosphate pH 8.0; compound or peptide injected into DegP^S210A in the cell; single binding site model; for DMB_CYYKI (0–2 molar ratio) and MMB_CYYKI (0–2.6) the data at 0–0.3 molar ratio were excluded from the fit; conditions: both partners purified
# DegP^S210A (E. coli) = DegP^S210A (E. coli) (UniProt P0C0V0); assay: as above
# [6] = model Independent, DMB_CYYKI 0-2 molar ratio
# T1 sequence (P0C0V0 27-474 C83S/C95S/S236A/N322C): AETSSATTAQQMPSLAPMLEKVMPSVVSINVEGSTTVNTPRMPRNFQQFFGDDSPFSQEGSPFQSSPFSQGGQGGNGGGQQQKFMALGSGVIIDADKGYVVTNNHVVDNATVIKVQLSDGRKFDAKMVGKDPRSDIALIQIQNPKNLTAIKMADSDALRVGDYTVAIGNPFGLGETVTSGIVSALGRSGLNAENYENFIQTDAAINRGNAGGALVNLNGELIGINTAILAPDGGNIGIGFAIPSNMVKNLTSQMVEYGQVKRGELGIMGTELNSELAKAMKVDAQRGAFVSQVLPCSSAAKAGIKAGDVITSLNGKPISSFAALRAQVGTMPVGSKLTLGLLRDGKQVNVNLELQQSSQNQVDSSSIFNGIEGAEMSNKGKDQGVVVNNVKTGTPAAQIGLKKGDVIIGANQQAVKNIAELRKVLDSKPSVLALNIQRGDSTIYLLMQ
molecule,measurement,setting,value
CC[C@H](C)[C@H](NC(=O)[C@H](CCCCN)NC(=O)[C@H](Cc1ccc(O)cc1)NC(=O)[C@H](Cc1ccc(O)cc1)NC(=O)[C@@H](N)CSCc1cccc(CSC[C@H](N)C(=O)N[C@@H](Cc2ccc(O)cc2)C(=O)N[C@@H](Cc2ccc(O)cc2)C(=O)N[C@@H](CCCCN)C(=O)N[C@H](C(=O)O)[C@@H](C)CC)c1)C(=O)O [DMB_CYYKI] (I: H-CYYKI-OH / II: H-CYYKI-OH; linker I:1-II:1 via mXylylene),EC50,DegP^S210A [1],1100 nM
same,Kd,"DegP^S210A [2]; model Independent, 0-0.4 molar ratio",4.62e-07 M
same,Kd,DegP^S210A [2]; [6],2.39e-07 M
CC[C@H](C)[C@H](NC(=O)[C@H](CCCCN)NC(=O)[C@H](Cc1ccc(O)cc1)NC(=O)[C@H](Cc1ccc(O)cc1)NC(=O)[C@@H](N)CSCc1ccccc1)C(=O)O [MMB_CYYKI] (H-C(Bn)YYKI-OH),EC50,DegP^S210A [1],6800 nM
same,Kd,DegP^S210A [2]; [6],6.32e-07 M
CC[C@H](C)[C@H](NC(=O)[C@H](CCCCN)NC(=O)[C@H](Cc1ccc(O)cc1)NC(=O)[C@H](Cc1ccc(O)cc1)NC(=O)[C@@H](N)CSCc1cc(CSC[C@H](N)C(=O)N[C@@H](Cc2ccc(O)cc2)C(=O)N[C@@H](Cc2ccc(O)cc2)C(=O)N[C@@H](CCCCN)C(=O)N[C@H](C(=O)O)[C@@H](C)CC)cc(CSC[C@H](N)C(=O)N[C@@H](Cc2ccc(O)cc2)C(=O)N[C@@H](Cc2ccc(O)cc2)C(=O)N[C@@H](CCCCN)C(=O)N[C@H](C(=O)O)[C@@H](C)CC)c1)C(=O)O [TMB_CYYKI] (I: H-CYYKI-OH / II: H-CYYKI-OH / III: H-CYYKI-OH; linker I:1-II:1-III:1 via TBMB),EC50,DegP^S210A [1],1700 nM
same,MIC,"E. coli imp4213; imp4213, Fig. 3a and Supplementary Fig. 6b (30 °C and 42 °C), 12 h, LB",80 µM
same,Kd,DegP^S210A [2]; [6],2.35e-07 M
"O=C(N[C@H](CO)[C@H](O)c1ccc([N+](=O)[O-])cc1)C(Cl)Cl [chloramphenicol, reference compound]",MIC,"E. coli imp4213; Escherichia coli, IMP4213",2 µg/mL
same,number of viable cells,E.coli imp4213 strain,roughly at the same level
"CO[C@H]1/C=C/O[C@@]2(C)Oc3c(C)c(O)c4c(O)c(c(/C=N/N5CCN(C)CC5)c(O)c4c3C2=O)NC(=O)/C(C)=C\C=C\[C@H](C)[C@H](O)[C@@H](C)[C@@H](O)[C@@H](C)[C@H](OC(C)=O)[C@@H]1C [rifampicin, reference compound]",MIC,"E. coli imp4213; Escherichia coli, IMP4213",0.008 µg/mL
"CN(C)[C@@H]1C(O)=C(C(N)=O)C(=O)[C@@]2(O)C(O)=C3C(=O)c4c(O)cccc4[C@@](C)(O)[C@H]3C[C@@H]12 [tetracycline, reference compound]",MIC,"E. coli imp4213; Escherichia coli, IMP4213",1 µg/mL
"DNYRGYSLGNWVSAAKFESNFNTQATNRNTDGSTDYGILQI [18–58, reference compound]",binding stoichiometry N,DegP^S210A [2],0.47
same,binding stoichiometry N,DegP^S210A [2]; listed as 18-58,0.473
same,ΔH,DegP^S210A [2]; [6],-4.4 kcal/mol
"CKYRKL (also: three arms joined via TMB (trimer), linker at 1 via TMB, other end not in the chain) [TMB_CKYRKL]",concentration of compound at maximal activation of reporter peptide (100 µM) cleavage by DegP; activation followed by inhibition at higher concentrations,DegP^WT (E. coli),100 µM
B1,binding result,[3],binds
"CYYKI (not fully specified (residue 1); printed as MMB_CYYKI, also called compound with one CYYKI arm; one-arm compound; source: synthetic peptide (SPPS), reacted with benzyl bromide) [MMB_CYYKI]",Kd,DegP^S210A [4],630 nM
same,stoichiometry N,DegP^S210A [5],1.11
GTGDNYRGYSLGNWVSAAKFESNFNTQATNRNTDGSTDYGILQI [18–58 substrate peptide],Kd,DegP^S210A [4],100 nM
same,stoichiometry N,DegP^S210A (E. coli),0.47
